{"source": "DBAASP", "assay_in_all_cases": "≥ marks a high value that may be exact or a test limit, other limits are often not marked, values filed in µg/mL are converted to µM", "key": {"[1]": {"tested_on": "Staphylococcus aureus"}, "[2]": {"tested_on": "Escherichia coli"}, "[3]": {"tested_on": "Bifidobacterium longum subsp. infantis"}, "[4]": {"tested_on": "Pseudomonas aeruginosa ATCC 27853(ImiR)"}, "[5]": {"tested_on": "Escherichia coli ATCC 25922(RifR)"}, "[6]": {"tested_on": "Klebsiella pneumoniae ATCC 700603"}, "[7]": {"tested_on": "Staphylococcus aureus ATCC 25923"}, "[8]": {"tested_on": "Klebsiella pneumoniae ATCC 700603(RifR)"}, "[9]": {"tested_on": "Pseudomonas aeruginosa ATCC 27853(RifR)"}, "[10]": {"tested_on": "Staphylococcus epidermidis ATCC 12228"}, "[11]": {"tested_on": "Bacillus subtilis ATCC 23857"}, "[12]": {"tested_on": "Pseudomonas aeruginosa 50"}, "[13]": {"tested_on": "Pseudomonas aeruginosa ATCC 27853(CipR)"}, "[14]": {"tested_on": "Acinetobacter baumannii ATCC 19606(GenR)"}, "[15]": {"tested_on": "Acinetobacter baumannii ATCC 19606"}, "[16]": {"tested_on": "Pseudomonas aeruginosa ATCC 9027"}, "[17]": {"tested_on": "Acinetobacter baumannii ATCC 19606(CipR)"}, "[18]": {"tested_on": "Klebsiella pneumoniae ATCC 700603(CipR)"}, "[19]": {"tested_on": "Escherichia coli ATCC 25922(CipR)"}, "[20]": {"tested_on": "Klebsiella pneumoniae ATCC 700603(ImiR)"}, "[21]": {"tested_on": "Escherichia coli ATCC 25922(GenR)"}, "[22]": {"tested_on": "Pseudomonas aeruginosa ATCC 27853"}, "[23]": {"tested_on": "Escherichia coli 780"}, "[24]": {"tested_on": "Staphylococcus aureus 113"}, "[25]": {"tested_on": "Staphylococcus aureus 75"}, "[26]": {"tested_on": "Klebsiella pneumoniae ATCC 700603(GenR)"}, "[27]": {"tested_on": "Escherichia coli ATCC 25922(ImiR)"}, "[28]": {"tested_on": "Acinetobacter baumannii ATCC 19606(RifR)"}, "[29]": {"tested_on": "Acinetobacter baumannii 9931"}, "[30]": {"tested_on": "Pseudomonas aeruginosa ATCC 27853(GenR)"}, "[31]": {"tested_on": "Staphylococcus aureus ATCC 29213"}, "[32]": {"tested_on": "Acinetobacter baumannii 97830"}, "[33]": {"tested_on": "Escherichia coli 804"}, "[34]": {"tested_on": "Acinetobacter baumannii ATCC 19606(ImiR)"}, "[35]": {"tested_on": "Bacillus subtilis PY22"}, "[36]": {"tested_on": "Escherichia coli DH5alpha"}, "[37]": {"tested_on": "Candida parapsilosis ATCC 90018"}, "[38]": {"tested_on": "Candida krusei ATCC 6258"}, "[39]": {"tested_on": "Escherichia coli ATCC 25922"}, "[40]": {"tested_on": "Candida glabrata ATCC 2001"}, "[41]": {"tested_on": "Candida tropicalis ATCC 750"}, "[42]": {"tested_on": "Candida albicans ATCC 10231"}, "[43]": {"tested_on": "Escherichia coli ATCC 35218"}, "[44]": {"tested_on": "Staphylococcus aureus BSF FBCB1313"}, "[45]": {"tested_on": "Candida tropicalis DBFIQ 3"}, "[46]": {"tested_on": "Candida albicans DBFIQ 1"}, "[47]": {"tested_on": "Enterococcus faecalis ATCC 29212"}, "[48]": {"tested_on": "Candida albicans PEEC 2"}, "[49]": {"tested_on": "Yersinia enterocolitica"}, "[50]": {"tested_on": "Trichophyton mentagrophytes TIMM 1189"}, "[51]": {"tested_on": "Candida albicans TIMM 0144"}}, "note": "Where “and” joins values, the source holds several entries; their conditions need not be identical. Equal entries are not always repeated.", "data": [{"smiles": "CC[C@H](C)[C@H](NC(=O)[C@@H](NC(=O)[C@@H]1CCCN1C(=O)[C@H](CC(C)C)NC(=O)[C@H](C)NC(=O)[C@H](CO)NC(=O)[C@@H](NC(=O)[C@@H](N)CCSC)[C@@H](C)O)[C@@H](C)CC)C(=O)N[C@@H](CCC(N)=O)C(=O)N[C@@H](CCCCN)C(=O)O", "note": "[MTSALPIIQK]", "values": [{"measurement": "MIC", "setting": "[1]", "value": "> 2720", "unit": "µM"}, {"measurement": "MIC", "setting": "[2]", "value": "> 2720", "unit": "µM"}, {"measurement": "MIC", "setting": "[3]", "value": "≥ 2720", "unit": "µM"}]}, {"smiles": "NCCCC[C@H](NC(=O)[C@H](CCCN=C(N)N)NC(=O)[C@H](Cc1c[nH]c2ccccc12)NC(=O)[C@H](CCCCN)NC(=O)[C@H](CCCN=C(N)N)NC(=O)[C@H](Cc1c[nH]c2ccccc12)NC(=O)[C@H](CCCCN)NC(=O)[C@H](CCCN=C(N)N)NC(=O)[C@H](Cc1c[nH]c2ccccc12)NC(=O)[C@H](CCCCN)NC(=O)[C@H](CCCN=C(N)N)NC(=O)[C@H](Cc1c[nH]c2ccccc12)NC(=O)[C@H](CCCCN)NC(=O)[C@H](CCCN=C(N)N)NC(=O)[C@@H](N)Cc1c[nH]c2ccccc12)C(N)=O", "note": "[WRKWRKWRKWRKWRK]", "values": [{"measurement": "MIC", "setting": "[4]", "value": 8, "unit": "µM"}, {"measurement": "MIC", "setting": "[5]", "value": 16, "unit": "µM"}, {"measurement": "MIC", "setting": "[6]", "value": 8, "unit": "µM"}, {"measurement": "MIC", "setting": "[7]", "value": "4 µM and 8 µM"}, {"measurement": "MIC", "setting": "[8]", "value": 16, "unit": "µM"}, {"measurement": "MIC", "setting": "[9]", "value": 4, "unit": "µM"}, {"measurement": "MIC", "setting": "[10]", "value": 2, "unit": "µM"}, {"measurement": "MIC", "setting": "[11]", "value": 2, "unit": "µM"}, {"measurement": "MIC", "setting": "[12]", "value": 2, "unit": "µM"}, {"measurement": "MIC", "setting": "[13]", "value": 4, "unit": "µM"}, {"measurement": "MIC", "setting": "[14]", "value": 16, "unit": "µM"}, {"measurement": "MIC", "setting": "[15]", "value": 8, "unit": "µM"}, {"measurement": "MIC", "setting": "[16]", "value": 4, "unit": "µM"}, {"measurement": "MIC", "setting": "[17]", "value": 8, "unit": "µM"}, {"measurement": "MIC", "setting": "[18]", "value": 16, "unit": "µM"}, {"measurement": "MIC", "setting": "[19]", "value": 8, "unit": "µM"}, {"measurement": "MIC", "setting": "[20]", "value": 16, "unit": "µM"}, {"measurement": "MIC", "setting": "[21]", "value": 8, "unit": "µM"}, {"measurement": "MIC", "setting": "[22]", "value": 4, "unit": "µM"}, {"measurement": "MIC", "setting": "[23]", "value": 4, "unit": "µM"}, {"measurement": "MIC", "setting": "[24]", "value": 2, "unit": "µM"}, {"measurement": "MIC", "setting": "[25]", "value": 4, "unit": "µM"}, {"measurement": "MIC", "setting": "[26]", "value": 16, "unit": "µM"}, {"measurement": "MIC", "setting": "[27]", "value": 16, "unit": "µM"}, {"measurement": "MIC", "setting": "[28]", "value": 8, "unit": "µM"}, {"measurement": "MIC", "setting": "[29]", "value": 8, "unit": "µM"}, {"measurement": "MIC", "setting": "[30]", "value": "≥ 32", "unit": "µM"}, {"measurement": "MIC", "setting": "[31]", "value": 4, "unit": "µM"}, {"measurement": "MIC", "setting": "[32]", "value": 4, "unit": "µM"}, {"measurement": "MIC", "setting": "[33]", "value": 16, "unit": "µM"}, {"measurement": "MIC", "setting": "[34]", "value": 16, "unit": "µM"}]}, {"smiles": "CC(=O)N[C@@H](CCCN=C(N)N)C(=O)N[C@@H](Cc1c[nH]c2ccccc12)C(=O)N[C@@H](CCCN=C(N)N)C(=O)N[C@@H](Cc1ccccc1)C(=O)N[C@@H](Cc1c[nH]c2ccccc12)C(=O)N[C@@H](CCCN=C(N)N)C(N)=O", "note": "[RWRFWR]", "values": [{"measurement": "MIC", "setting": "[35]", "value": 31.3, "unit": "µM"}, {"measurement": "MIC", "setting": "[36]", "value": "≥ 125", "unit": "µM"}]}, {"smiles": "CC[C@H](C)[C@H](NC(=O)CN)C(=O)N[C@@H](CC(C)C)C(=O)N[C@@H](CC(=O)O)C(=O)N[C@H](C(=O)N[C@@H](CCCCN)C(=O)N[C@@H](CC(N)=O)C(=O)N[C@@H](CCCCN)C(=O)N[C@H](C(=O)N[C@@H](CO)C(=O)N[C@@H](CC(N)=O)C(=O)N[C@@H](CC(C)C)C(=O)N[C@@H](Cc1ccccc1)C(N)=O)C(C)C)[C@@H](C)CC", "note": "[GILDIKNKVSNLF]", "values": [{"measurement": "MIC", "setting": "[37]", "value": "≥ 125", "unit": "µM"}, {"measurement": "MIC", "setting": "[38]", "value": "≥ 62.5", "unit": "µM"}, {"measurement": "MIC", "setting": "[39]", "value": 62.5, "unit": "µM"}, {"measurement": "MIC", "setting": "[22]", "value": 62.5, "unit": "µM"}, {"measurement": "MIC", "setting": "[40]", "value": "≥ 250", "unit": "µM"}, {"measurement": "MIC", "setting": "[41]", "value": 31.2, "unit": "µM"}, {"measurement": "MIC", "setting": "[42]", "value": 62.5, "unit": "µM"}, {"measurement": "MIC", "setting": "[31]", "value": 31.2, "unit": "µM"}]}, {"smiles": "CC(C)C[C@H](NC(=O)[C@@H](N)CCCCN)C(=O)N[C@@H](Cc1ccccc1)C(=O)N[C@@H](CCCCN)C(N)=O", "note": "[KLFK]", "values": [{"measurement": "MIC", "setting": "[7]", "value": "> 240", "unit": "µM"}, {"measurement": "MIC", "setting": "[43]", "value": "≥ 240", "unit": "µM"}, {"measurement": "MIC", "setting": "[44]", "value": "≥ 240", "unit": "µM"}, {"measurement": "MIC", "setting": "[45]", "value": "≥ 480", "unit": "µM"}, {"measurement": "MIC", "setting": "[22]", "value": "> 240", "unit": "µM"}, {"measurement": "MIC", "setting": "[46]", "value": "≥ 480", "unit": "µM"}, {"measurement": "MIC", "setting": "[47]", "value": "> 240", "unit": "µM"}, {"measurement": "MIC", "setting": "[48]", "value": "≥ 480", "unit": "µM"}]}, {"smiles": "CC[C@H](C)[C@H](NC(=O)[C@H](CCC(N)=O)NC(=O)[C@H](Cc1cnc[nH]1)NC(=O)[C@@H](NC(=O)[C@@H]1CCCN1C(=O)[C@H](CC(N)=O)NC(=O)[C@H](CC(C)C)NC(=O)[C@H](CC(C)C)NC(=O)[C@H](CC(C)C)NC(=O)[C@@H](N)CCC(=O)O)[C@@H](C)O)C(=O)N[C@@H](Cc1ccc(O)cc1)C(=O)N1CCC[C@H]1C(=O)N[C@H](C(=O)N[C@H](C(=O)N[C@@H](CCC(N)=O)C(=O)N1CCC[C@H]1C(=O)N[C@@H](CC(C)C)C(=O)N[C@@H](C)C(=O)N1CCC[C@H]1C(=O)N[C@H](C(=O)O)C(C)C)[C@@H](C)O)C(C)C", "note": "[ELLLNPTHQIYPVTQPLAPV]", "values": [{"measurement": "MIC", "setting": "[7]", "value": 89.1, "unit": "µM"}, {"measurement": "MIC", "setting": "[49]", "value": "≥ 89.1", "unit": "µM"}]}, {"smiles": "CC[C@H](C)[C@H](NC(=O)[C@@H]1CSSC[C@H](NC(=O)[C@H](CCCCN)NC(=O)[C@@H](N)[C@@H](C)O)C(=O)N[C@@H](Cc2ccccc2)C(=O)N[C@@H](CCC(N)=O)C(=O)N[C@@H](Cc2c[nH]c3ccccc23)C(=O)N[C@@H](CCC(N)=O)C(=O)N[C@@H](CCCN=C(N)N)C(=O)N[C@@H](CC(N)=O)C(=O)N[C@@H](CCSC)C(=O)N[C@@H](CCCN=C(N)N)C(=O)N[C@@H](CCCCN)C(=O)N[C@@H](C(C)C)C(=O)N[C@@H](CCCN=C(N)N)C(=O)NCC(=O)N2CCC[C@H]2C(=O)N2CCC[C@H]2C(=O)N[C@@H](C(C)C)C(=O)N[C@@H](CO)C(=O)N1)C(=O)N[C@@H](CCCCN)C(=O)N[C@@H](CCCN=C(N)N)C(=O)N[C@@H](CC(=O)O)C(=O)N[C@@H](CO)C(=O)O", "note": "[TKCFQWQRNMRKVRGPPVSCIKRDS]", "values": [{"measurement": "MIC", "setting": "[50]", "value": 16.5, "unit": "µM"}, {"measurement": "MIC", "setting": "[51]", "value": "≥ 33.1", "unit": "µM"}, {"measurement": "MIC", "setting": "[39]", "value": "> 128", "unit": "µM"}]}]}
